Experimental data published in patent US20110263454A1, “Methods of Identifying Functional Characteristics of Promoters, Transcription Modifying Proteins and Transcription Modulating Agents” (Salk Institute for Biological Studies, priority 2008, published 2011).

What was measured:
hG6PD promoter = test: NHR-promoter luciferase screen, hG6PD promoter; format: cell-based, human; settings: for Luc. act., normalized to lacZ / Normalized Luc. act., normalized to control: G6PD promoter reporter, co-transfected HR, without or with its ligand; for Normalized Luc. act., normalized to control: relative to control; for luciferase activity normalized to lacZ activity and to a control, hG6PD: hG6PD promoter-luciferase, CV-1 cells, NHR +/- ligand, control = 1.00
Description: (§1) The use, feasibility, and reproducibility of the functional NHR-promoter screen in a 48-well format have been tested validated. Briefly, there were co-expressed 50 ng of each NHR/NHR homodimer or NHR/RXR heterodimer with 100 ng promoter/luciferase construct and 50 ng of LacZ (as a control for transfection efficiency) in CV-1 cells using Fugene HD (Roche) as a transfection reagent (alternatively or additionally, a CMV-YFP construct can be used as a transfection control). Each of the nuclear hormone receptors that were used in these experiments was cloned into a pcDNA3.1 vector and comprised a C-terminally linked V5H6 tag. Twenty-four hours after transfection, appropriate ligands were added, where applicable, (see Table 5 for various ligands and concentrations and after 48 hrs, samples were assayed for luciferase and LacZ activity. To measure for luciferase activity 15 ul of sample was added to 30 ul of luciferase buffer (20 mM tricine, 1.07 mM MgCarbonate, 2.67 mM MgSulfate, 0.1 mM Naz-EDTA, 5 mM DTT, 5 mM ATP, 0.15 mg/ml CoA, 0.5 mM Luciferin), mixed briefly, and run in a Perkin Elmer Victor 5 luminometer. Thus, the functional NHR-promoter screen was used to observe the transcriptional activity of 29 promoters from various physiological pathways including inflammation, lipid and sugar metabolism, cholesterol transport, xenobiotic metabolism, and circadian rhythm.
(§2) The promoters that facilitate transcription of the indicated gene products that were tested using the protocols described herein are listed in the first row of the table. The nuclear hormone receptors and, where applicable, ligands that were assayed for their transcriptional effects on the promoters are listed in the first column of the table. The data represent the luciferase activity of each sample normalized to both the lacZ activity of that sample and to a control, e.g., no NHR or ligand, as customary in the art. As described previously, these normalizations allow the transcriptional activity of each reporter cell to be compared to other samples.
(§3) Tables 7-40 show the transcriptional effects of the hormone receptors, and, where applicable, ligands (orphan receptors are screened without ligand), on each individual promoter. […] The control data of each table are shown in their last rows.

mUCP2 promoter = test: NHR-promoter luciferase screen, mUCP2 promoter; format: cell-based, mouse; settings: for Luc. act., normalized to lacZ / Normalized Luc. act., normalized to control: mUCP2 promoter reporter, co-transfected HR, with or without its ligand; for Normalized Luc. act., normalized to control: relative to control; for luciferase activity normalized to lacZ activity and to a control, mUCP2: mUCP2 promoter-luciferase, CV-1 cells, NHR +/- ligand, control = 1.00
Description: as §1, §2, §3

hIRF7 promoter = test: NHR-promoter luciferase screen, hIRF7 promoter; format: cell-based, human; settings: for Normalized Luc. act., normalized to control / Luc. act., normalized to lacZ: IRF7 promoter reporter; for Normalized Luc. act., normalized to control: HR without or with its ligand, relative to control; for Luc. act., normalized to lacZ: hormone receptor (HR) without or with its ligand; for hIRF7 promoter reporter activity: transcription factor +/- ligand, control = 1.00
Description: as §1, §2, §3

hCYP3A4 promoter = test: NHR-promoter luciferase screen, hCYP3A4 promoter; format: cell-based, human; settings: for Luc. act., normalized to lacZ / Normalized Luc. act., normalized to control: CYP3A4 promoter, HR/ligand component; for hCYP3A4 promoter reporter activity: transcription factor +/- ligand, control = 1.00
Description: (§4) Briefly, there were co-expressed 50 ng of each NHR/NHR homodimer or NHR/RXR heterodimer with 100 ng promoter/luciferase construct and 50 ng of LacZ (as a control for transfection efficiency) in CV-1 cells using Fugene HD (Roche) as a transfection reagent (alternatively or additionally, a CMV-YFP construct can be used as a transfection control). Each of the nuclear hormone receptors that were used in these experiments was cloned into a pcDNA3.1 vector and comprised a C-terminally linked V5H6 tag.
as §2, §3

RevErba promoter = test: NHR-promoter luciferase screen, RevErba (RVRa) promoter; format: cell-based; set-up: key to mRevErba promoter reporter activity / Normalized Luc. act., normalized to control: luciferase activity normalized to lacZ and to control (no NHR/ligand); settings: for Luc. act., normalized to lacZ / Normalized Luc. act., normalized to control / negative reciprocal of normalized Luc. act. (fold repression; Table 33) / normalized Luc. act. on a logarithmic scale (column without head, Table 33): RVRa promoter; for Luc. act., normalized to lacZ / Normalized Luc. act., normalized to control: HR component without or with ligand; for negative reciprocal of normalized Luc. act. (fold repression; Table 33): given only where activity is below control; for normalized Luc. act. on a logarithmic scale (column without head, Table 33): log10 of activity normalized to control; for mRevErba promoter reporter activity: transcription factor +/- ligand, control = 1.00
Description: as §4, §2
The control data of each table are shown in their last rows.

hTNFa promoter = test: NHR-promoter luciferase screen, hTNFa promoter; format: cell-based, human; settings: for Luc. act., normalized to lacZ / Normalized Luc. act., normalized to control: TNFa promoter, HR component without or with ligand; for hTNFa promoter reporter activity: transcription factor +/- ligand, control = 1.00
Description: as §1, §2, §3

Row | Substance | Luc. act., normalized to lacZ (hG6PD promoter) | Normalized Luc. act., normalized to control (hG6PD promoter) | luciferase activity normalized to lacZ activity and to a control, hG6PD (hG6PD promoter) | Luc. act., normalized to lacZ (mUCP2 promoter) | Normalized Luc. act., normalized to control (mUCP2 promoter) | luciferase activity normalized to lacZ activity and to a control, mUCP2 (mUCP2 promoter) | Normalized Luc. act., normalized to control (hIRF7 promoter) | Luc. act., normalized to lacZ (hIRF7 promoter) | hIRF7 promoter reporter activity (hIRF7 promoter) | Luc. act., normalized to lacZ (hCYP3A4 promoter) | Normalized Luc. act., normalized to control (hCYP3A4 promoter) | hCYP3A4 promoter reporter activity (hCYP3A4 promoter) | Luc. act., normalized to lacZ (RevErba promoter) | Normalized Luc. act., normalized to control (RevErba promoter) | negative reciprocal of normalized Luc. act. (fold repression; Table 33) (RevErba promoter) | normalized Luc. act. on a logarithmic scale (column without head, Table 33) (RevErba promoter) | mRevErba promoter reporter activity (RevErba promoter) | Luc. act., normalized to lacZ (hTNFa promoter) | Normalized Luc. act., normalized to control (hTNFa promoter) | hTNFa promoter reporter activity (hTNFa promoter)
1 | PNR: Photoreceptor-specific Nuclear Receptor (NR2E3), cDNA driver | 45.9 | 1.2 | 1.23 | 104.4 | 1.0 | 0.95 | 1.0 | 27.5 | 1.04 | 2.2 | 0.5 | 0.50 | 7.1 | 0.3 | −3.936 | −0.60 | 0.25 | 558.4 | 0.6 | 0.57
2 | AR: Androsterone Receptor (NR3C4), cDNA driver | 41.5 | 1.1 | 1.11 | 196.6 | 1.8 | 1.79 | 1.1 | 29.9 | 1.14 | 3.9 | 0.9 | 0.88 | 13.5 | 0.5 | −2.065 | −0.31 | 0.48 | 1019.9 | 1.0 | 1.04
3 | PPARg: Peroxisome proliferator activated receptor γ (NR1C3), cDNA driver | 66.0 | 1.8 | 1.77 | 171.6 | 1.6 | 1.56 | 1.7 | 44.8 | 1.70 | 4.7 | 1.1 | 1.06 | 40.6 | 1.5 | – | 0.16 | 1.45 | 1345.4 | 1.4 | 1.37
4 | PPARa: Peroxisome proliferator activated receptor α (NR1C1), cDNA driver | 55.6 | 1.5 | 1.49 | 167.3 | 1.5 | 1.52 | 1.4 | 36.6 | 1.39 | 3.4 | 0.8 | 0.76 | 52.1 | 1.9 | – | 0.27 | 1.86 | 1107.9 | 1.1 | 1.13
5 | ERR1: Estrogen Related Receptor α (NR3B1, ERRa), cDNA driver | 59.1 | 1.6 | 1.58 | 121.6 | 1.1 | 1.11 | 1.2 | 31.3 | 1.19 | 4.5 | 1.0 | 1.01 | 33.3 | 1.2 | – | 0.08 | 1.19 | 1234.7 | 1.3 | 1.26
6 | TLX: Tailless (homolog of drosophila) (NR2E1), cDNA driver | 107.9 | 2.9 | 2.89 | 111.9 | 1.0 | 1.02 | 2.1 | 55.0 | 2.09 | 4.0 | 0.9 | 0.90 | 13.5 | 0.5 | −2.079 | −0.32 | 0.48 | 1085.1 | 1.1 | 1.10
7 | LXRa: Liver X Receptor α (NR1H3), cDNA driver | 60.5 | 1.6 | 1.62 | 262.7 | 2.4 | 2.39 | 1.3 | 33.2 | 1.26 | 4.1 | 0.9 | 0.93 | – | – | – | – | – | 994.6 | 1.0 | 1.01
